Laboratory results reported in US20240207263A1, “SELECTIVE MODULATORS OF ATAXIA TELA[…] (ATM) KINASE AND USES THEREOF” (priority 2021, published 2024).

The compounds below were run against ATM (Homo sapiens (Human), UniProt Q13315) (assay: biochemical). Conditions: read-out: ATM IC50.
Assay type: biochemical
Text: Assay a): ATM Biochemical Potency
Data was collected by Caliper.

ATM, sequence (Q13315 whole entry, looked up): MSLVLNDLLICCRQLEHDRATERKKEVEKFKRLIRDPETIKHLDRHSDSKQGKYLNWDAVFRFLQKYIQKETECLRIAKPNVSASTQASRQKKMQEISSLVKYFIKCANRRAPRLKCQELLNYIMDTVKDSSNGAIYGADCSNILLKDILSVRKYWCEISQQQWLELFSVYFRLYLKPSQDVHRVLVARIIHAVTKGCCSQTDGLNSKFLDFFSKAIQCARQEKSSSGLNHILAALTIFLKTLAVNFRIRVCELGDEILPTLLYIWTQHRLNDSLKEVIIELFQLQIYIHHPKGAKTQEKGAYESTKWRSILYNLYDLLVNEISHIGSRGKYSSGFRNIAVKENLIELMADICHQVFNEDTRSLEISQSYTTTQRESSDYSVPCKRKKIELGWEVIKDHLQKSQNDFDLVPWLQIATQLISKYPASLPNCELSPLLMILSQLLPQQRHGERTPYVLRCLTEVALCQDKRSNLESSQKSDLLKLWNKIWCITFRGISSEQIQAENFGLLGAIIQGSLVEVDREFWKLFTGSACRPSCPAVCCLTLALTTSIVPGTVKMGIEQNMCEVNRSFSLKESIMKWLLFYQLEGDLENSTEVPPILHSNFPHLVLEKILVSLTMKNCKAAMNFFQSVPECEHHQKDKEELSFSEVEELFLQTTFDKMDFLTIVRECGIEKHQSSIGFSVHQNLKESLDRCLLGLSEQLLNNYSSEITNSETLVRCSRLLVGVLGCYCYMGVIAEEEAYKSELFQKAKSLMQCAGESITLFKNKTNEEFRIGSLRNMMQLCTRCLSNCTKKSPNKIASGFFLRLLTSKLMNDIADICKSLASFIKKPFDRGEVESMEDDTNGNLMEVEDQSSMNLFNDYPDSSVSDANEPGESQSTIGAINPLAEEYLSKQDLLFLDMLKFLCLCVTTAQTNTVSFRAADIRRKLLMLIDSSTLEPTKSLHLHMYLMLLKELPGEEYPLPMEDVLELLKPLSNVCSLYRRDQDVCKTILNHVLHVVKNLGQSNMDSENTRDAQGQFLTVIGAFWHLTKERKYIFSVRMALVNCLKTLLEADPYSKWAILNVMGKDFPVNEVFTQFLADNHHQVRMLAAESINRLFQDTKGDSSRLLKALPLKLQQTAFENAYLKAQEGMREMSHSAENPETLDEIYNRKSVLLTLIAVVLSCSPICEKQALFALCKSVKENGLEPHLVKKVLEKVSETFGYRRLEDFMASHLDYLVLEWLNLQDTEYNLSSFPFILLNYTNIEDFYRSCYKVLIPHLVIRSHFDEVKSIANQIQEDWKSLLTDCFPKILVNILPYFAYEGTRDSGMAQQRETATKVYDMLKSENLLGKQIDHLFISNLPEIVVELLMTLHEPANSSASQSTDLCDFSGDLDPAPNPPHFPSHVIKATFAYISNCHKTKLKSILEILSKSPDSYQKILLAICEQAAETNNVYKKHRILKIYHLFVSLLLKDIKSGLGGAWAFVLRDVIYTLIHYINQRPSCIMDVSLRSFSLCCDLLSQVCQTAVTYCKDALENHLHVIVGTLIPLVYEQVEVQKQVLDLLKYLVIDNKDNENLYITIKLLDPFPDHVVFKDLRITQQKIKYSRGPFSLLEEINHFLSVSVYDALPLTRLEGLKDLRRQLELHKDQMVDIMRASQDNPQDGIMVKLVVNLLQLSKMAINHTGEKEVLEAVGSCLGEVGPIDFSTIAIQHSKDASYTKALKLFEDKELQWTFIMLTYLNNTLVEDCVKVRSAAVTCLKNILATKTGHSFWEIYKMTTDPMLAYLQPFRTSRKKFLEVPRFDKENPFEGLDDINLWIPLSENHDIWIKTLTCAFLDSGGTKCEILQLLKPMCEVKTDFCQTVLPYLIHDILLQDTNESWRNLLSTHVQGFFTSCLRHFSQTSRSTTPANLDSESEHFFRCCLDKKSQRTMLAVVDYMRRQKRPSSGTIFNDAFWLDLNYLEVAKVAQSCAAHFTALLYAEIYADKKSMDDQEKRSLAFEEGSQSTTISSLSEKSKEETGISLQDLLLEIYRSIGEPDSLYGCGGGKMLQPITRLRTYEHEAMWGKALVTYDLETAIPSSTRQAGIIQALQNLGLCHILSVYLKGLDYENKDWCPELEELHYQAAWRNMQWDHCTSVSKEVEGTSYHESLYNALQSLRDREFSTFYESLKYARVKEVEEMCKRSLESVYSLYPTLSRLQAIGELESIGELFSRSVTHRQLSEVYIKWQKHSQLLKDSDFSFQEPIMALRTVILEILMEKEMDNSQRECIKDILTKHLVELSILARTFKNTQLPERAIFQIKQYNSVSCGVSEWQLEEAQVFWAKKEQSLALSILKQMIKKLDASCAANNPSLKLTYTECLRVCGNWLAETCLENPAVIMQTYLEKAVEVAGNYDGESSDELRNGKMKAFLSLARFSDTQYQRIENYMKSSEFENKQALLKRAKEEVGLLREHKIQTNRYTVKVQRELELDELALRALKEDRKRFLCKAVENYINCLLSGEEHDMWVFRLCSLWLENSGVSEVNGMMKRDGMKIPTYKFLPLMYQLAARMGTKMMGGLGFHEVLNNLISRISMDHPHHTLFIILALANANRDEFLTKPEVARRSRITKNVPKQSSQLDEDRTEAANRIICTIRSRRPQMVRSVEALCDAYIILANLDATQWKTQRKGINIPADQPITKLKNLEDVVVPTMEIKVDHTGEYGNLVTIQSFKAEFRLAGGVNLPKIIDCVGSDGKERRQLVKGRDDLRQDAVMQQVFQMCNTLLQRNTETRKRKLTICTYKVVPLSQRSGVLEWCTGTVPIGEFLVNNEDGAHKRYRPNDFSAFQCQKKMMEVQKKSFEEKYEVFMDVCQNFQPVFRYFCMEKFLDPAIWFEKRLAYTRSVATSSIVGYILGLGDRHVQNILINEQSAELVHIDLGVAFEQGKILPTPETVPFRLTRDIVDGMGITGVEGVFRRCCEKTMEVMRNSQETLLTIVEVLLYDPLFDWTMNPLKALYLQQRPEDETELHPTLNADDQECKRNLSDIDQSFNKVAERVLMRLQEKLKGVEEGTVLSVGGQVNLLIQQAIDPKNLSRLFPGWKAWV

CC(C)n1c(=O)n(C)c2nnc3ccc(-c4ccc(COCCN5CCC(C#N)C5)nc4)cc3c21 (centres unmarked) [Example 25] and CC(C)n1c(=O)n(C)c2nnc3ccc(-c4ccc(COCCN5CC[C@@H](F)C5)nc4)cc3c21 [Example 28, (R)-8-(6-((2-(3-fluoropyrrolidin-1-yl)ethoxy)methyl)pyridin-3-yl)-1-isopropyl-3-methyl-1H-imidazo[4,5-c]cinnolin-2(3H)-one] are within 1.5-fold of each other in IC50: 71 nM for the first, 81 nM for the second.

First: CC(C)n1c(=O)n(C)c2nnc3ccc(-c4ccc(COCCN5CCC6(CC6)C5)nc4)cc3c21 [Example 26, 8-(6-((2-(5-azaspiro[2.4]heptan-5-yl)ethoxy)methyl)pyridin-3-yl)-1-isopropyl-3-methyl-1H-imidazo[4,5-c]cinnolin-2(3H)-one]
Second: CC(C)n1c(=O)n(C)c2nnc3ccc(-c4ccc(COCCN5CCCC6(CCC6)C5)nc4)cc3c21 [Example 40, 8-(6-((2-(6-azaspiro[3.5]nonan-6-yl)ethoxy)methyl)pyridin-3-yl)-1-isopropyl-3-methyl-1H-imidazo[4,5-c]cinnolin-2(3H)-one]
The IC50 of the first is 1.7-fold lower: 14 nM for the first, 24 nM for the second.

Going from COC1CCN(CCOCc2ccc(-c3ccc4nnc5c(c4c3)n(C(C)C)c(=O)n5C)cn2)CC1 [Example 27, 1-isopropyl-8-(6-((2-(4-methoxypiperidin-1-yl)ethoxy)methyl)pyridin-3-yl)-3-methyl-1H-imidazo[4,5-c]cinnolin-2(3H)-one] to COC1CCCN(CCOCc2ccc(-c3ccc4nnc5c(c4c3)n(C(C)C)c(=O)n5C)cn2)C1 (centres unmarked) [Example 41, 1-isopropyl-8-(6-((2-(3-methoxypiperidin-1-yl)ethoxy)methyl)pyridin-3-yl)-3-methyl-1H-imidazo[4,5-c]cinnolin-2(3H)-one], the IC50 falls from 92 nM to 50 nM (1.8-fold).

Going from CC(C)n1c(=O)n(C)c2nnc3ccc(-c4ccc(COCCN5CCC[C@@H]5C)nc4)cc3c21 [Example 29, (S)-1-isopropyl-3-methyl-8-(6-((2-(2-methylpyrrolidin-1-yl)ethoxy)methyl)pyridin-3-yl)-1H-imidazo[4,5-c]cinnolin-2(3H)-one] to CC(C)n1c(=O)n(C)c2nnc3ccc(-c4ccc(COCCN5CCC[C@H]5C)nc4)cc3c21 [Example 35, (R)-1-isopropyl-3-methyl-8-(6-((2-(2-methylpyrrolidin-1-yl)ethoxy)methyl)pyridin-3-yl)-1H-imidazo[4,5-c]cinnolin-2(3H)-one], the IC50 falls from 68 nM to 43 nM (1.6-fold).

Compared with CC(C)n1c(=O)n(C)c2nnc3ccc(-c4ccc(COCCN5CCC(F)(F)CC5)nc4)cc3c21 [Example 30, 8-(6-((2-(4,4-difluoropiperidin-1-yl)ethoxy)methyl)pyridin-3-yl)-1-isopropyl-3-methyl-1H-imidazo[4,5-c]cinnolin-2(3H)-one], CC(C)n1c(=O)n(C)c2nnc3ccc(-c4ccc(COCCN5CCC6(CCC6)CC5)nc4)cc3c21 [Example 49, 8-(6-((2-(7-azaspiro[3.5]nonan-7-yl)ethoxy)methyl)pyridin-3-yl)-1-isopropyl-3-methyl-1H-imidazo[4,5-c]cinnolin-2(3H)-one] is 22-fold lower in IC50: 62 nM for the first, 2.8 nM for the second. The second is the more potent here.

First: CC(C)n1c(=O)n(C)c2nnc3ccc(-c4ccc(COCCN5CCN(C)CC5)nc4)cc3c21 [Example 32, 1-isopropyl-3-methyl-8-(6-((2-(4-methylpiperazin-1-yl)ethoxy)methyl)pyridin-3-yl)-1H-imidazo[4,5-c]cinnolin-2(3H)-one]
Second: CC(C)n1c(=O)n(C)c2nnc3ccc(-c4ccc(COCCN5CCOCC5)nc4)cc3c21 [Example 33, 1-isopropyl-3-methyl-8-(6-((2-morpholinoethoxy)methyl)pyridin-3-yl)-1H-imidazo[4,5-c]cinnolin-2(3H)-one]
The IC50 of the first is 5.2-fold higher: 304 nM for the first, 58 nM for the second. The second is the more potent here.

CC(C)n1c(=O)n(C)c2nnc3ccc(-c4ccc(COCCN5CC[C@H](F)C5)nc4)cc3c21 [Example 34, (S)-8-(6-((2-(3-fluoropyrrolidin-1-yl)ethoxy)methyl)pyridin-3-yl)-1-isopropyl-3-methyl-1H-imidazo[4,5-c]cinnolin-2(3H)-one] and CC(C)n1c(=O)n(C)c2nnc3ccc(-c4ccc(COCCN5CCCC(F)C5)nc4)cc3c21 (centres unmarked) [Example 38, 8-(6-((2-(3-fluoropiperidin-1-yl)ethoxy)methyl)pyridin-3-yl)-1-isopropyl-3-methyl-1H-imidazo[4,5-c]cinnolin-2(3H)-one] are within 1.5-fold of each other in IC50: 47 nM for the first, 57 nM for the second.

Compared with CC(C)n1c(=O)n(C)c2nnc3ccc(-c4ccc(COCCN5CC(N(C)C)C5)nc4)cc3c21 [Example 37, 8-(6-((2-(3-(dimethylamino)azetidin-1-yl)ethoxy)methyl)pyridin-3-yl)-1-isopropyl-3-methyl-1H-imidazo[4,5-c]cinnolin-2(3H)-one], CC(C)n1c(=O)n(C)c2nnc3ccc(-c4ccc(COCCN5CC[C@H](N(C)C)C5)nc4)cc3c21 [Example 42, (S)-8-(6-((2-(3-(dimethylamino)pyrrolidin-1-yl)ethoxy)methyl)pyridin-3-yl)-1-isopropyl-3-methyl-1H-imidazo[4,5-c]cinnolin-2(3H)-one] is 1.8-fold lower in IC50: 78 nM for the first, 44 nM for the second. The second is the more potent here.

CC(C)n1c(=O)n(C)c2nnc3ccc(-c4ccc(COCCN5CC6CCC5C6)nc4)cc3c21 (centres unmarked) [Example 39, 8-(6-((2-(2-azabicyclo[2.2.1]heptan-2-yl)ethoxy)methyl)pyridin-3-yl)-1-isopropyl-3-methyl-1H-imidazo[4,5-c]cinnolin-2(3H)-one] and CC(C)n1c(=O)n(C)c2nnc3ccc(-c4ccc(COCCN5[C@H](C)CC[C@@H]5C)nc4)cc3c21 [Example 45, 8-(6-((2-((2R,5S)-2,5-dimethylpyrrolidin-1-yl)ethoxy)methyl)pyridin-3-yl)-1-isopropyl-3-methyl-1H-imidazo[4,5-c]cinnolin-2(3H)-one] are within 1.5-fold of each other in IC50: 73 nM for the first, 84 nM for the second.

Compared with COC1CCN(CCOCc2ccc(-c3ccc4nnc5c(c4c3)n(C(C)C)c(=O)n5C)cn2)CC1 [Example 44, 1-isopropyl-8-(6-((2-(4-methoxypiperidin-1-yl)ethoxy)methyl)pyridin-3-yl)-3-methyl-1H-imidazo[4,5-c]cinnolin-2(3H)-one], CC(C)n1c(=O)n(C)c2nnc3ccc(-c4ccc(COCCN5CCC(OC(F)(F)F)CC5)nc4)cc3c21 [Example 47, 1-isopropyl-3-methyl-8-(6-((2-(4-(trifluoromethoxy)piperidin-1-yl)ethoxy)methyl)pyridin-3-yl)-1H-imidazo[4,5-c]cinnolin-2(3H)-one] is 5.5-fold lower in IC50: 12 nM for the first, 2.2 nM for the second.

First: CC(C)n1c(=O)n(C)c2nnc3ccc(-c4ccc(COCCN5CC[C@@H](N(C)C)C5)nc4)cc3c21 [Example 46, (R)-8-(6-((2-(3-(dimethylamino)pyrrolidin-1-yl)ethoxy)methyl)pyridin-3-yl)-1-isopropyl-3-methyl-1H-imidazo[4,5-c]cinnolin-2(3H)-one]
Second: CC(C)n1c(=O)n(C)c2nnc3ccc(-c4ccc(COCCN5CC[C@@H](OC(F)F)C5)nc4)cc3c21 [Example 50, (R)-8-(6-((2-(3-(difluoromethoxy)pyrrolidin-1-yl)ethoxy)methyl)pyridin-3-yl)-1-isopropyl-3-methyl-1H-imidazo[4,5-c]cinnolin-2(3H)-one]
The IC50 of the first is 6.9-fold higher: 76 nM for the first, 11 nM for the second.

First: CC(C)n1c(=O)n(C)c2nnc3ccc(-c4ccc(COCCN5CC6C(C5)C6(F)F)nc4)cc3c21 (centres unmarked) [Example 48, 8-(6-((2-(6,6-difluoro-3-azabicyclo[3.1.0]hexan-3-yl)ethoxy)methyl)pyridin-3-yl)-1-isopropyl-3-methyl-1H-imidazo[4,5-c]cinnolin-2(3H)-one]
Second: CC(C)n1c(=O)n(C)c2nnc3ccc(-c4ccc(COCCN5CC[C@H](OC(F)F)C5)nc4)cc3c21 [Example 51, (S)-8-(6-((2-(3-(difluoromethoxy)pyrrolidin-1-yl)ethoxy)methyl)pyridin-3-yl)-1-isopropyl-3-methyl-1H-imidazo[4,5-c]cinnolin-2(3H)-one]
The IC50 of the first is 2.2-fold higher: 17 nM for the first, 7.6 nM for the second. The second is the more potent here.

Compared with CC(C)n1c(=O)n(C)c2nnc3ccc(-c4ccc([C@@H](C)OCCN5CCC(OC(F)(F)F)CC5)nc4)cc3c21 [Example 58, (R)-1-isopropyl-3-methyl-8-(6-(1-(2-(4-(trifluoromethoxy)piperidin-1-yl)ethoxy)ethyl)pyridin-3-yl)-1H-imidazo[4,5-c]cinnolin-2(3H)-one], CC(C)n1c(=O)n(C)c2nnc3ccc(-c4ccc([C@@H](C)OCCN5CCC(OC(F)(F)F)C5)nc4)cc3c21 (some centres unmarked) [Example 60] is 2-fold higher in IC50: 1.4 nM for the first, 2.8 nM for the second.

First: CC(C)n1c(=O)n(C)c2nnc3ccc(-c4ccc([C@@H](C)OCCN5CCC(C)(C)C5)nc4)cc3c21 [Example 61, (R)-8-(6-(1-(2-(3,3-dimethylpyrrolidin-1-yl)ethoxy)ethyl)pyridin-3-yl)-1-isopropyl-3-methyl-1H-imidazo[4,5-c]cinnolin-2(3H)-one]
Second: CO[C@@H]1CCN(CCO[C@@H](C)c2ccc(-c3ccc4nnc5c(c4c3)n(C(C)C)c(=O)n5C)cn2)C1 [Example 64, 1-isopropyl-8-(6-((S)-1-(2-((R)-3-methoxypyrrolidin-1-yl)ethoxy)ethyl)pyridin-3-yl)-3-methyl-1H-imidazo[4,5-c]cinnolin-2(3H)-one]
The IC50 of the first is 5.6-fold lower: 3.4 nM for the first, 19 nM for the second.

CO[C@H]1CCN(CCO[C@@H](C)c2ccc(-c3ccc4nnc5c(c4c3)n(C(C)C)c(=O)n5C)cn2)C1 [Example 65, 1-isopropyl-8-(6-((S)-1-(2-((S)-3-methoxypyrrolidin-1-yl)ethoxy)ethyl)pyridin-3-yl)-3-methyl-1H-imidazo[4,5-c]cinnolin-2(3H)-one] and CC(C)n1c(=O)n(C)c2nnc3ccc(-c4ccc([C@H](C)OCCN5CCC(F)CC5)nc4)cc3c21 [Example 68, (S)-8-(6-(1-(2-(4-fluoropiperidin-1-yl)ethoxy)ethyl)pyridin-3-yl)-1-isopropyl-3-methyl-1H-imidazo[4,5-c]cinnolin-2(3H)-one] are within 1.5-fold of each other in IC50: 167 nM for the first, 160 nM for the second.

First: CC(C)n1c(=O)n(C)c2nnc3ccc(-c4ccc([C@@H](C)OCCN5CC6CC6C5)nc4)cc3c21 (stereo partly drawn) [Example 66, 8-(6-((1R)-1-(2-(3-azabicyclo[3.1.0]hexan-3-yl)ethoxy)ethyl)pyridin-3-yl)-1-isopropyl-3-methyl-1H-imidazo[4,5-c]cinnolin-2(3H)-one]
Second: CC(C)n1c(=O)n(C)c2nnc3ccc(-c4ccc([C@H](C)OCCN5CC6CC6C5)nc4)cc3c21 (stereo partly drawn) [Example 67, 8-(6-((1S)-1-(2-(3-azabicyclo[3.1.0]hexan-3-yl)ethoxy)ethyl)pyridin-3-yl)-1-isopropyl-3-methyl-1H-imidazo[4,5-c]cinnolin-2(3H)-one]
The IC50 of the first is 16-fold lower: 10 nM for the first, 158 nM for the second. The first is the more potent here.
